Assay results reported in US9012456B2, “Compounds, pharmaceutical compositions and uses thereof” (Boehringer Ingelheim International GmbH, priority 2012, dated 2015).

molecular target: T1, human GPR119 (Homo sapiens, UniProt Q8TDV5); assay: AlphaScreen cAMP assay in Min-6/hGPR119 cells (activation of GPR119, stimulation of intracellular cAMP); assay type: cell-based; conditions: MIN6 cells stably transfected with human GPR119; 45 min incubation at room temperature; cAMP by AlphaScreen
T1 construct: expressed in transfected cells
T1 sequence (Q8TDV5 1-335): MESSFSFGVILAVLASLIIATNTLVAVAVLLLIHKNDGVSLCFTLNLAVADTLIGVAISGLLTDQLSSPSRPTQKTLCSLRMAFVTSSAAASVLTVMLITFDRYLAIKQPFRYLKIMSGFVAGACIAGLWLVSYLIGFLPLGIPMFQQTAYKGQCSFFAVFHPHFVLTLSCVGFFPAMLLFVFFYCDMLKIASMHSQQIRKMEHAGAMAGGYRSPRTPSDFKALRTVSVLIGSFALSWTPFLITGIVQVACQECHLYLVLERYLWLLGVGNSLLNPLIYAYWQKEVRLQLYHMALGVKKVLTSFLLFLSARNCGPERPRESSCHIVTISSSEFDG
Experimental: The compounds of formula I according to the invention modulate the activity of the G-protein-coupled receptor GPR119. The effect of the compounds on the activation of GPR119 and on the stimulation of intracellular cAMP concentration is determined using the AlphaScreen cAMP Assay Kit (Cat. No. #6760625R) made by PerkinElmer.
MIN6 cells [Miyazaki J et al., Endocrinology. 1990 July; 127(1):126-32] are stably transfected with an expression vector for human GPR119 cDNA (Acc. No. NP_848566). Min-6/hGPR119 cells are cultured in DMEM, 10% FBS, 50 μM β-mercaptoethanol, 0.3 mg/mL Geniticin, 2 mM GlutaMAX at 37° C., 5% CO2. For the assay, the cells are seeded in Optiplates (white, 384-well, 160W-barcoded, TC, sterile with lid, Cat. No. #6007688 (Perkin Elmer); 10000 cells/well; 50 μL). The plates covered with lids are then incubated for 24 hours at 37° C., 5% CO2. After the medium is aspirated from the wells completely, 10 μl of the test compound are added, the compounds are diluted using stimulating buffer (140 mM NaCl, 3.6 mM KCl, 0.5 mM NaH2PO4, 0.5 mM MgSO4, 1.5 mM CaCl2, 10 mM Hepes, 5 mM NaHCO3; pH 7.4. 0.5 mM IBMX and 0.1% BSA, the final DMSO concentration is 1%). After 45 minutes incubation at room temperature (approx. 20° C.), the cAMP concentrations are determined using the AlphaScreen cAMP Assay Kit (Cat. No. #6760625R from PerkinElmer).

Row | Structure (SMILES) | EC50 [nM]
1 | CC(C)(C)OC(=O)N1CCC(c2cc3cc(-c4ccc(C(N)=O)cc4F)ncc3o2)CC1 [Example 7, 4-[5-(2-Fluoro-4-aminocarbonyl-phenyl)-furo[2,3-c]pyridin-2-yl]-piperidine-1-carboxylic acid tert-butyl ester] | 108
2 | CS(=O)(=O)N1CC=C(c2cc3cc(C4CCN(c5ccc(C(F)(F)F)cn5)CC4)oc3cn2)CC1 [Example 23, 4-[5-(1-Methanesulfonyl-1,2,3,6-tetrahydro-pyridin-4-yl)-furo[2,3-c]pyridin-2-yl]-5′-trifluoromethyl-3,4,5,6-tetrahydro-2H-[1,2′]bipyridinyl] | 86
3 | CC(C)(C)OC(=O)N1CCC(c2cc3cc(-c4ccc(CS(C)(=O)=O)cc4)ncc3o2)CC1 [Example 12, 4-[5-(4-Methanesulfonylmethyl-phenyl)-furo[2,3-c]pyridin-2-yl]-piperidine-1-carboxylic acid tert-butyl ester] | 105
4 | CC(C)(C)OC(=O)N1CCC(c2cc3cc(-c4ccncc4)ncc3o2)CC1 [Example 11, 4-(5-Pyridin-4-yl-furo[2,3-c]pyridin-2-yl)-piperidine-1-carboxylic acid tert-butyl ester] | 310
5 | CC(C)(C)OC(=O)N1CCC(c2cc3cc(-c4ccncc4F)ncc3o2)CC1 [Example 15, 4-[5-(3-Fluoro-pyridin-4-yl)-furo[2,3-c]pyridin-2-yl]-piperidine-1-carboxylic acid tert-butyl ester] | 233
6 | CC(C)(C)OC(=O)N1CCC(C)(c2cc3cc(-c4ccc(S(C)(=O)=O)cc4)ncc3o2)CC1 [Example 27, 4-[5-(4-Methanesulfonyl-phenyl)-furo[2,3-c]pyridin-2-yl]-4-methyl-piperidine-1-carboxylic acid tert-butyl ester] | 140
7 | CC(C)(C)OC(=O)N1CCC(c2cc3cc(-c4cnco4)ncc3o2)CC1 [Example 10, 4-(5-Oxazol-5-yl-furo[2,3-c]pyridin-2-yl)-piperidine-1-carboxylic acid tert-butyl ester] | 592
8 | CC(C)(C)OC(=O)N1CCC(c2cc3cc(N4CCN(S(C)(=O)=O)CC4)ncc3o2)CC1 [Example 13, 4-[5-(4-Methanesulfonyl-piperazin-1-yl)-furo[2,3-c]pyridin-2-yl]-piperidine-1-carboxylic acid tert-butyl ester] | 82
9 | CC(C)(C)OC(=O)N1CCC(C)(c2cc3cc(C4=CCN(S(C)(=O)=O)CC4)ncc3o2)CC1 [Example 28, 4-[5-(1-Methanesulfonyl-1,2,3,6-tetrahydro-pyridin-4-yl)-furo[2,3-c]pyridin-2-yl]-4-methyl-piperidine-1-carboxylic acid tert-butyl ester] | 73
10 | CCc1cnc(N2CCC(c3cc4cc(-c5ccc(S(C)(=O)=O)cc5F)ncc4o3)CC2)nc1 [Example 16, 2-[1-(5-Ethyl-pyrimidin-2-yl)-piperidin-4-yl]-5-(2-fluoro-4-methanesulfonyl-phenyl)-furo[2,3-c]pyridine] | 64
11 | CC(C)(C)OC(=O)N1CCC(c2cc3cc(-c4ccc(C#N)cc4F)ncc3o2)CC1 [Example 8, 4-[5-(4-Cyano-2-fluoro-phenyl)-furo[2,3-c]pyridin-2-yl]-piperidine-1-carboxylic acid tert-butyl ester] | 281
12 | CC(C)(F)CN1CCC(c2cc3cc(-c4ccc(S(C)(=O)=O)cc4F)ncc3o2)CC1 [Example 18, 5-(2-Fluoro-4-methanesulfonyl-phenyl)-2-[1-(2-fluoro-2-methyl-propyl)-piperidin-4-yl]-furo[2,3-c]pyridine] | 79
13 | CC(C)(C)OC(=O)N1CCC(c2cc3cc(-c4ccc(NS(C)(=O)=O)cc4)ncc3o2)CC1 [Example 4, 4-[5-(4-Methanesulfonylamino-phenyl)-furo[2,3-c]pyridin-2-yl]-piperidine-1-carboxylic acid tert-butyl ester] | 121
14 | CC(C)(C)OC(=O)N1CCC(c2cc3cc(-c4ccc(C(=O)OCc5ccccc5)cc4)ncc3o2)CC1 [Example 9, 4-[5-(4-Benzyloxycarbonyl-phenyl)-furo[2,3-c]pyridin-2-yl]-piperidine-1-carboxylic acid tert-butyl ester] | 567
15 | CC(C)(C)OC(=O)N1CCC(c2cc3cc(-c4ccc(S(C)(=O)=O)c(F)c4)ncc3o2)CC1 [Example 2, 4-[5-(3-Fluoro-4-methanesulfonyl-phenyl)-furo[2,3-c]pyridin-2-yl]-piperidine-1-carboxylic acid tert-butyl ester] | 62
16 | CC(C)(C)OC(=O)N1CCC(c2cc3cc(-c4ccc(C#N)c(F)c4)ncc3o2)CC1 [Example 5, 4-[5-(4-Cyano-3-fluoro-phenyl)-furo[2,3-c]pyridin-2-yl]-piperidine-1-carboxylic acid tert-butyl ester] | 263

These reach a lower EC50. Values come first.

Row | EC50 [nM] | Structure (SMILES)
17 | 58 | CC(C)(C)OC(=O)N1CCC(c2cc3cc(-c4ccc(S(C)(=O)=O)cc4)ncc3o2)CC1 [Example 1, 4-[5-(4-Methanesulfonyl-phenyl)-furo[2,3-c]pyridin-2-yl]-piperidine-1-carboxylic acid tert-butyl ester]
18 | 51 | CS(=O)(=O)c1ccc(-c2cc3cc(C4CCN(CC5(C(F)(F)F)CC5)CC4)oc3cn2)c(F)c1 [Example 17, 5-(2-Fluoro-4-methanesulfonyl-phenyl)-2-[1-(1-trifluoromethyl-cyclopropylmethyl)-piperidin-4-yl]-furo[2,3-c]pyridine]
19 | 45 | CCNC(=O)c1ccc(-c2cc3cc(C4CCN(C(=O)OC(C)(C)C)CC4)oc3cn2)cc1 [Example 6, 4-[5-(4-Ethylcarbamoyl-phenyl)-furo[2,3-c]pyridin-2-yl]-piperidine-1-carboxylic acid tert-butyl ester]
20 | 41 | CS(=O)(=O)N1CC=C(c2cc3cc(C4CCN(c5ncc(Cl)cn5)CC4)oc3cn2)CC1 [Example 25, 2-[1-(5-Chloro-pyrimidin-2-yl)-piperidin-4-yl]-5-(1-methanesulfonyl-1,2,3,6-tetrahydro-pyridin-4-yl)-furo[2,3-c]pyridine]
21 | 28 | CS(=O)(=O)N1CC=C(c2cc3cc(C4CCN(CC5(C(F)(F)F)CC5)CC4)oc3cn2)CC1 [Example 24, 5-(1-Methanesulfonyl-1,2,3,6-tetrahydro-pyridin-4-yl)-2-[1-(1-trifluoromethyl-cyclopropylmethyl)-piperidin-4-yl]-furo[2,3-c]pyridine]
22 | 19 | CC(C)OC(=O)N1CCC(c2cc3cc(C4=CCN(S(C)(=O)=O)CC4)ncc3o2)CC1 [Example 21, 4-[5-(1-Methanesulfonyl-1,2,3,6-tetrahydro-pyridin-4-yl)-furo[2,3-c]pyridin-2-yl]-piperidine-1-carboxylic acid isopropyl ester]
23 | 18 | CS(=O)(=O)N1CC=C(c2cc3cc(C4CCN(c5nnc(C(F)(F)F)s5)CC4)oc3cn2)CC1 [Example 26, 5-(1-Methanesulfonyl-1,2,3,6-tetrahydro-pyridin-4-yl)-2-[1-(5-trifluoromethyl-[1,3,4]thiadiazol-2-yl)-piperidin-4-yl]-furo[2,3-c]pyridine]
24 | 13 | CC1(OC(=O)N2CCC(c3cc4cc(-c5ccc(S(C)(=O)=O)cc5F)ncc4o3)CC2)CC1 [Example 20, 4-[5-(2-Fluoro-4-methanesulfonyl-phenyl)-furo[2,3-c]pyridin-2-yl]-piperidine-1-carboxylic acid 1-methyl-cyclopropyl ester]
25 | 12 | CC(C)OC(=O)N1CCC(c2cc3cc(-c4ccc(S(C)(=O)=O)cc4F)ncc3o2)CC1 [Example 19, 4-[5-(2-Fluoro-4-methanesulfonyl-phenyl)-furo[2,3-c]pyridin-2-yl]-piperidine-1-carboxylic acid isopropyl ester]
26 | 10 | CC1(OC(=O)N2CCC(c3cc4cc(C5=CCN(S(C)(=O)=O)CC5)ncc4o3)CC2)CC1 [Example 22, 4-[5-(1-Methanesulfonyl-1,2,3,6-tetrahydro-pyridin-4-yl)-furo[2,3-c]pyridin-2-yl]-piperidine-1-carboxylic acid 1-methyl-cyclopropyl ester]
27 | 9 | CC(C)(C)OC(=O)N1CCC(c2cc3cc(C4=CCN(S(C)(=O)=O)CC4)ncc3o2)CC1 [Example 14, 4-[5-(1-Methanesulfonyl-1,2,3,6-tetrahydro-pyridin-4-yl)-furo[2,3-c]pyridin-2-yl]-piperidine-1-carboxylic acid tert-butyl ester]
28 | 9 | CC(C)(C)OC(=O)N1CCC(c2cc3cc(-c4ccc(S(C)(=O)=O)cc4F)ncc3o2)CC1 [Example 3, 4-[5-(2-Fluoro-4-methanesulfonyl-phenyl)-furo[2,3-c]pyridin-2-yl]-piperidine-1-carboxylic acid tert-butyl ester]
